From patent publication US10149840B2, “OCT3 activity inhibitor containing imidazopyridine derivative as active component, and OCT3 detection agent” (SHIN NIPPON BIOMEDICAL LABORATORIES, LTD., priority 2012, dated 2018)

Tests used:
ddY male mice = test: forced swimming test; assay type: in vivo; conditions: low dose administered alone (imipramine 4 mg/kg or OCT3 inhibitor 0.25 μl/hr)
Protocol: In this forced swimming test, mice or rats as test animals are forced to swim in water tanks from which the mice or rats cannot escape. Then, an immobility behavior of the test animals after an escape behavior thereof (a state in which only the head is above the water surface and the test animals are floating without moving the hands or feet) is observed. When the test animals are put into the water tanks again 24 hours or more later, the immobility behavior is expressed earlier than in the first experiment. Duration of this immobility behavior for a certain time (usually about 5 minutes) is relatively accurately reproduced.
Specifically, a test is performed as follows.
In an experiment, ddY male mice each weighing 28 to 33 g (Japan SLC, Inc.) are used. […] After being acquired, these mice are bred in a room in which temperature (22 to 24° C.), humidity (50 to 60%), and lighting (lighting 8:00 to 20:00) are controlled for three or more days. In the first forced swimming test, all the experimental mice are forced to swim in glass cylinders (diameter 15.5 cm, depth 17 cm, water depth 12 cm, water temperature 25° C.) for 300 seconds to measure immobility time. The mice are distributed into experimental groups (an OCT3 inhibitor-administrated group, a positive control group, and a negative control group) such that an average value of the immobility time is almost the same. […]

OCT3 = OCT3 (Homo sapiens (Human), UniProt O75751); conditions: Non Patent Literature 1; read-out: IC50 (reported); cited from earlier work
[1] = measured Brain/Blood verification experiment in BALB/c mice; assay type: in vivo; conditions: mouse, 5 mg/kg, five minutes after administration, brain homogenate vs plasma
Protocol: The Brain/Blood value predicted with the above method was verified with an experiment using BALB/c mice. As test substances in the verification experiment, two compounds of SR-4277 and Famotidine were used. […] The test substance was administered in 5 mg/kg to the mice. The mice were anesthetized in advance with isoflurane, and exsanguination was performed from the vena cava of the mice five minutes after the administration. Brains were removed, and weights thereof were measured. After that, a brain homogenate was prepared. The collected blood was subjected to centrifugation, and plasma was thereby prepared. Concentrations of the test substance in plasma and the brain homogenate were measured with HPLC and MS.

Sequence of OCT3 (O75751 whole entry): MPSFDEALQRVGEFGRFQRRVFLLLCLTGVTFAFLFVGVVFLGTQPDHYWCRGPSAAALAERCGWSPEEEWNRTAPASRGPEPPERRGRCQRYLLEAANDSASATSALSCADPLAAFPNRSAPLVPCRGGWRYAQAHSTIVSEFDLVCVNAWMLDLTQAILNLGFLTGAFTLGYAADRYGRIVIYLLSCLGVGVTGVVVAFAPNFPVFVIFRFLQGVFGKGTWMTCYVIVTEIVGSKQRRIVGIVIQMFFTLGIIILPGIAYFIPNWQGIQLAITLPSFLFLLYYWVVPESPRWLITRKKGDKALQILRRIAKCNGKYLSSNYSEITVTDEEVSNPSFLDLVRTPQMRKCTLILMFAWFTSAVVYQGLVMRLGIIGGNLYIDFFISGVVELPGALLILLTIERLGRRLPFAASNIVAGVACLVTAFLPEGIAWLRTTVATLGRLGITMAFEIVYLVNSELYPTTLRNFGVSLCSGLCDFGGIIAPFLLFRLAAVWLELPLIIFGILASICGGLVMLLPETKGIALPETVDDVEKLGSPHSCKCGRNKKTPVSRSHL

CN(C)CCCN1c2ccccc2CCc2ccccc21 [imipramine]
average value of the immobility time (ddY male mice): about 200 seconds

CN/C(=N/CCSCc1nc[nH]c1C)NC#N [cimetidine]
IC50 (OCT3): 240 µM

NC(N)=Nc1nc(CSCCC(N)=NS(N)(=O)=O)cs1 [Famotidine]
Kp at 5 min [1]: 0.1 | IC50 (OCT3): 20 µM

Cn1cc(C(=O)[C@@H]2CCc3nc[nH]c3C2)c2ccccc21 [ramosetron]
IC50 (OCT3): ≤ 100 µM

CN1C2CCCC1CC(NC(=O)c1nn(C)c3ccccc13)C2 (stereo not drawn) [granisetron]
IC50 (OCT3): ≤ 100 µM
